Experimental data published in PubChem BioAssay (NCI).
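Step 1: Grow cells in 96-well plates. Step 2: Expose to compound for 48 hours at 5 concentrations. Step 3: Interpolate endpoints linearly; if unreached, use highest concentration. GI50 = concentration required for 50% inhibition of growth. At the TGI there is no net growth.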

Key:
Assay in all cases: NCI anticancer screen, dose series, 48 h; in the data active = GI50 below about 0.43 µM; inactive = the rest
[1] = system: OVCAR-3 ovarian
[2] = system: HOP-92 NSCLC
[3] = system: SW-620 colon
[4] = system: TK-10 renal
[5] = system: CAKI-1 renal
[6] = system: MOLT-4 leukemia
[7] = system: SF-539 CNS
[8] = system: HCT-15 colon
[9] = system: MCF7 breast
[10] = system: HL-60(TB) leukemia
[11] = system: SF-268 CNS
[12] = system: SN12C renal
[13] = system: ACHN renal
[14] = system: NCI-H23 lung
[15] = system: K-562 leukemia
[16] = system: U251 CNS
[17] = system: LOX IMVI melanoma
[18] = system: NCI-H226 lung
[19] = system: 786-0 renal
[20] = system: HOP-62 NSCLC
[21] = system: NCI/ADR-RES ovarian
[22] = system: SK-MEL-5 melanoma
[23] = system: SNB-75 CNS
[24] = system: NCI-H460 lung
[25] = system: SK-MEL-2 melanoma
[26] = system: OVCAR-4 ovarian
[27] = system: UACC-257 melanoma
[28] = system: HCC-2998 colon
[29] = system: DU-145 prostate
[30] = system: NCI-H522 lung
[31] = system: BT-549 breast
[32] = system: OVCAR-8 ovarian
[33] = system: SK-OV-3 ovarian
[34] = system: PC-3 prostate
[35] = system: A549 NSCLC
[36] = system: SF-295 CNS
[37] = system: MDA-MB-231 breast
[38] = system: SK-MEL-28 melanoma
[39] = system: T-47D breast
[40] = system: RXF 393 renal
[41] = system: SNB-19 CNS
[42] = system: A498 renal
[43] = system: HS 578T breast
[44] = system: UO-31 renal
[45] = system: IGROV1 ovarian
[46] = system: MDA-MB-435
[47] = system: COLO 205 colon
[48] = system: SR leukemia
[49] = system: HT29 colon
[50] = system: KM12 colon
[51] = system: OVCAR-5 ovarian
[52] = system: HCT-116 colon
[53] = system: MALME-3M melanoma
[54] = system: UACC-62 melanoma
[55] = system: CCRF-CEM leukemia
[56] = system: RPMI-8226 leukemia
[57] = system: M14 melanoma

Oc1c(C(Nc2ccccn2)c2cccc(Oc3ccccc3)c2)ccc2cccnc12 (stereo unspecified)
13.9 µM: TGI [9]
17.8 µM: TGI [38]
20 µM: TGI [35]
16.7 µM: TGI [17]
3.56 µM: TGI [7]
14.3 µM: TGI [11]
19.5 µM: TGI [37]
11.4 µM: TGI [23]
9.32 µM: TGI [18]
2.16 µM: TGI [22]
18.6 µM: TGI [30]
13 µM: TGI [31]
20.1 µM: TGI [34]
inactive: GI50 [1] 0.56 µM | GI50 [2] 0.522 µM | GI50 [4] 0.672 µM | GI50 [6] 0.436 µM | GI50 [10] 0.432 µM | GI50 [11] 0.518 µM | GI50 [12] 0.591 µM | GI50 [14] 0.839 µM | GI50 [17] 0.468 µM | GI50 [18] 1.36 µM | GI50 [19] 0.657 µM | GI50 [20] 0.448 µM | GI50 [23] 0.433 µM | GI50 [25] 1.68 µM | GI50 [27] 1.32 µM | GI50 [28] 1.84 µM | GI50 [29] 0.774 µM | GI50 [30] 0.492 µM | GI50 [31] 0.479 µM | GI50 [33] 0.836 µM | GI50 [34] 0.483 µM | GI50 [35] 0.544 µM | GI50 [37] 0.617 µM | GI50 [38] 0.63 µM | GI50 [39] 0.785 µM | GI50 [40] 1.32 µM | GI50 [43] 0.74 µM | GI50 [45] 0.538 µM | GI50 [46] 0.496 µM | GI50 [47] 0.492 µM | GI50 [48] 0.508 µM | GI50 [49] 1.63 µM | GI50 [50] 0.45 µM | GI50 [51] 0.515 µM | GI50 [52] 0.449 µM | GI50 [53] 0.806 µM | GI50 [55] 0.477 µM | GI50 [56] 0.6 µM
12.6 µM: TGI [51]
21.5 µM: TGI [45]
14.7 µM: TGI [41] | TGI [47]
32.6 µM: TGI [28]
23.4 µM: TGI [50]
84 µM: TGI [56]
7.2 µM: TGI [13]
15.6 µM: TGI [33]
10 µM: TGI [5]
3.11 µM: TGI [44]
active: GI50 [3] 0.422 µM | GI50 [5] 0.319 µM | GI50 [7] 0.372 µM | GI50 [8] 0.331 µM | GI50 [9] 0.416 µM | GI50 [13] 0.41 µM | GI50 [15] 0.374 µM | GI50 [16] 0.362 µM | GI50 [21] 0.416 µM | GI50 [22] 0.388 µM | GI50 [24] 0.365 µM | GI50 [26] 0.361 µM | GI50 [32] 0.424 µM | GI50 [36] 0.392 µM | GI50 [41] 0.366 µM | GI50 [42] 0.262 µM | GI50 [44] 0.382 µM | GI50 [54] 0.31 µM
37 µM: TGI [10]
13.3 µM: TGI [36]
1.29 µM: TGI [54]
13.4 µM: TGI [1] | TGI [26]
14.5 µM: TGI [4]
11.1 µM: TGI [19]
22.1 µM: TGI [40]
> 100 µM: TGI [6] | TGI [8] | TGI [14] | TGI [15] | TGI [21] | TGI [43] | TGI [48] | TGI [55]
14 µM: TGI [16]
10.5 µM: TGI [24]
30.1 µM: TGI [49]
15 µM: TGI [27]
21 µM: TGI [20] | TGI [25]
20.9 µM: TGI [12]
23.7 µM: TGI [2]
16.6 µM: TGI [52]
6.22 µM: TGI [42]
16.4 µM: TGI [46]
20.7 µM: TGI [3]
16.2 µM: TGI [29]
33.2 µM: TGI [39]
19.7 µM: TGI [32] | TGI [53]

CS(=O)(=O)N1CCC(n2c(=O)c(Oc3ccc(F)cc3F)cc3cnc(NC4CCOCC4)nc32)CC1
inactive: GI50 [1] > 25 µM | GI50 [2] > 25 µM | GI50 [3] > 25 µM | GI50 [4] 19.9 µM | GI50 [5] > 25 µM | GI50 [6] > 25 µM | GI50 [7] > 25 µM | GI50 [8] > 25 µM | GI50 [9] > 25 µM | GI50 [10] > 25 µM | GI50 [11] > 25 µM | GI50 [12] > 25 µM | GI50 [13] > 25 µM | GI50 [14] > 25 µM | GI50 [15] > 25 µM | GI50 [16] > 25 µM | GI50 [17] > 25 µM | GI50 [18] > 22.5 µM | GI50 [19] > 25 µM | GI50 [20] > 25 µM | GI50 [21] > 25 µM | GI50 [22] > 25 µM | GI50 [23] > 25 µM | GI50 [24] > 25 µM | GI50 [57] > 25 µM | GI50 [25] > 25 µM | GI50 [26] > 25 µM | GI50 [27] > 25 µM | GI50 [28] > 25 µM | GI50 [29] > 25 µM | GI50 [30] > 25 µM | GI50 [31] 24.5 µM | GI50 [32] > 25 µM | GI50 [33] > 17.5 µM | GI50 [34] > 25 µM | GI50 [35] > 25 µM | GI50 [36] > 25 µM | GI50 [37] > 25 µM | GI50 [38] > 25 µM | GI50 [39] > 20.8 µM | GI50 [40] 6.88 µM | GI50 [41] > 25 µM | GI50 [42] 3.18 µM | GI50 [43] > 11.6 µM | GI50 [44] 16.9 µM | GI50 [45] > 25 µM | GI50 [46] > 25 µM | GI50 [47] > 25 µM | GI50 [48] > 25 µM | GI50 [49] > 25 µM | GI50 [50] > 25 µM | GI50 [51] > 25 µM | GI50 [52] > 25 µM | GI50 [53] > 25 µM | GI50 [54] > 25 µM | GI50 [55] > 25 µM | GI50 [56] > 17.5 µM
> 25 µM: TGI [1] | TGI [2] | TGI [3] | TGI [4] | TGI [5] | TGI [6] | TGI [7] | TGI [8] | TGI [9] | TGI [10] | TGI [11] | TGI [12] | TGI [13] | TGI [14] | TGI [15] | TGI [16] | TGI [17] | TGI [18] | TGI [19] | TGI [20] | TGI [21] | TGI [22] | TGI [23] | TGI [24] | TGI [57] | TGI [25] | TGI [26] | TGI [27] | TGI [28] | TGI [29] | TGI [30] | TGI [31] | TGI [32] | TGI [33] | TGI [34] | TGI [35] | TGI [36] | TGI [37] | TGI [38] | TGI [39] | TGI [40] | TGI [41] | TGI [42] | TGI [43] | TGI [44] | TGI [45] | TGI [46] | TGI [47] | TGI [48] | TGI [49] | TGI [50] | TGI [51] | TGI [52] | TGI [53] | TGI [54] | TGI [55] | TGI [56]
